In patent US11760775B2, “Steroids and protein-conjugates thereof” (Regeneron Pharmaceuticals, Inc., priority 2016, dated 2023):
pEC50, pIC50: −log10 of the molar value. Counter-ions that a name gives are not always drawn. Like-named read-outs stand apart in the source and are kept apart here.

How the values were obtained:
[1] = biological target: Glucocorticoid Receptor (GR) (Homo sapiens (Human), UniProt P04150); assay: LanthaScreen TR-FRET GR Competitive Binding Assay (cell free)
[2] = test system: GR activation in 293/PRLR/GRE-Luc cells (HEK293/9xUAS-Luc2P/pBind-GR/PRLR-HA high cells); assay: GR co-activator luciferase reporter cell based assay in 293/PRLR/GRE-Luc cells; set-up: species or system human; conditions: for pEC50 / Emax: Homo sapiens; for pEC50: HEK293, read-out: HEK293/9xUAS-Luc2P/pBind-GR/PRLR-HA high cells EC50; for HEK293/9xUAS-Luc2P/pBind-GR/PRLR-HA high cells activation relative to Budesonide: fold activation vs Budesonide; for Emax: HEK293, read-out: Activation (fold activation relative to Budesonide) in HEK293/9xUAS-Luc2P/pBind-GR/PRLR-HA high cells
Excerpt: Bioassays described herein were used to assess the efficacy of free steroids and anti-PRLR-ncADCs. In one example, the bioassay assessed the activity of steroids, after internalization of a site-specific anti-PRLR-GC steroid ADC into cells, to bind to pBIND-GR and subsequent luciferase reporter activation. […] Then such stable cell line was further transfected with a chimeric receptor consisting of a GR ligand binding domain fused to the yeast Gal4 DNA binding domain (pBind-GR, Promega Cat #E1581), and a Gal4 upstream activator sequence (9×Gal4UAS-Luc2P) that drives luciferase gene expression.
(§1) For this assay, 20,000 cells were seeded in 96-well plates in media containing DMEM supplemented with 10% FBS and pencillin/streptomycin (complete media) and grown overnight at 37° C. in 5% CO2. […] Luciferase activity was determined by addition of OneGlo™ reagent (Promega, Cat #E6130) and relative light units (RLUs) were measured on a Victor luminometer (Perkin Elmer). The EC50 values were determined from a four-parameter logistic equation over a 10 point response curve using GraphPad Prism.
as §1, with “One-Glo™” for “OneGlo™”, “10-point” for “10 point”, “Prism. […] Minimal activation in this assay is defined as less than 10% of the maximal activation measured with the free payload.” for “Prism.”

Sequence of Glucocorticoid Receptor (GR) (P04150 524-758): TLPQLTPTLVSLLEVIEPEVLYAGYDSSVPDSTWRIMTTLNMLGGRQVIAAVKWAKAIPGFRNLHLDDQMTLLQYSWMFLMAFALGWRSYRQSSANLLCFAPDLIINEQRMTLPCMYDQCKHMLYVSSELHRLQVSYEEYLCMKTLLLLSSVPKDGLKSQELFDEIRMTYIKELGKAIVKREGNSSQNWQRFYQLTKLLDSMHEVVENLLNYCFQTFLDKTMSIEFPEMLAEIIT

SMILES | pIC50 [1] | pEC50 [2] | HEK293/9xUAS-Luc2P/pBind-GR/PRLR-HA high cells activation relative to Budesonide [2] | Emax ([2]; 72 hours of incubation) | pEC50 ([2]; 72 hours of incubation)
CCC[C@H]1O[C@@H]2C[C@H]3[C@@H]4C[C@H](F)C5=CC(=O)C=C[C@]5(C)[C@@]4(F)[C@@H](O)C[C@]3(C)[C@]2(C(=O)COc2ccc(N)cc2)O1 [Compound S-6-I, (1S,2S,4R,6S,8S,9S,11S,12R,13S,19S)-8-[2-(4-Aminophenoxy)acetyl]-12,19-difluoro-11-hydroxy-9,13-dimethyl-6-propyl-5,7-dioxapentacyclo[10.8.0.0^2,90.0^4,80.0^13,18]icosa-14,17-dien-16-one] | > 8.00 | > 8.00 | Full |  | 
CCC(=O)O[C@]1(C(=O)CNC)[C@@H](C)C[C@H]2[C@@H]3C[C@H](F)C4=CC(=O)C=C[C@]4(C)[C@@]3(F)[C@@H](O)C[C@@]21C [Compound 14-2, (1R,2S,8S,10S,11S,13S,14R,15S,17S)-1,8-difluoro-17-hydroxy-2,13,15-trimethyl-14-[2-(methylamino)acetyl]-5-oxotetracyclo[8.7.0.0^2,70.0^11,15]heptadeca-3,6-dien-14-yl propanoate] | > 8.00 |  |  | < 20% | < 7.00
CCCC1O[C@@H]2C[C@H]3[C@@H]4CCC5=CC(=O)C=C[C@]5(C)[C@H]4[C@@H](O)C[C@]3(C)[C@]2(C(=O)CNC)O1 (stereo partly drawn) [11-2 R/S, (1S,2S,4R,8S,9S,11S,12S,13R)-11-hydroxy-9,13-dimethyl-8-[2-(methylamino)acetyl]-6-propyl-5,7-dioxapentacyclo[10.8.0.0^2,90.0^4,80.0^13,18]icosa-14,17-dien-16-one] | 7.00 to 8.00 |  |  | > 75% | < 7.00
CCC[C@@H]1O[C@@H]2C[C@H]3[C@@H]4CCC5=CC(=O)C=C[C@]5(C)[C@H]4[C@@H](O)C[C@]3(C)[C@]2(C(=O)COc2ccc(N)cc2F)O1 [11-7 R, (1S,2S,4R,8S,9S,11S,12S,13R)-8-[2-(4-Amino-3-fluorophenoxy)acetyl]-11-hydroxyl-9,13-dimethyl-6-propyl-5,7-dioxapentacyclo[10.8.0.0^2,90.0^4,80.0^13,18]icosa-14,17-dien-16-one] | 7.00 to 8.00 |  |  | > 75% | 7.00 to 8.00
CCC[C@@H]1O[C@@H]2C[C@H]3[C@@H]4C[C@H](F)C5=CC(=O)C=C[C@]5(C)[C@@]4(F)[C@@H](O)C[C@]3(C)[C@]2(C(=O)COc2ccc(N)cc2)O1 [Compound R-6-I] | > 8.00 | > 8.00 | Full |  | 
CCC[C@@H]1O[C@@H]2C[C@H]3[C@@H]4CCC5=CC(=O)C=C[C@]5(C)[C@H]4[C@@H](O)C[C@]3(C)[C@]2(C(=O)COc2ccc(NC)cc2)O1 [11-8 R, (1S,2S,4R,6R,8S,9S,11S,12S,13R)-11-Hydroxyl-9,13-dimethyl-8-{2-[4-(methylamino)phenoxy]acetyl}-6-propyl-5,7-dioxapentacyclo-[10.8.0.0^2,90.0^4,80.0^13,18]icosa-, 14,17-dien-16-one] | 7.00 to 8.00 |  |  | > 75% | > 8.00
CC(C)C(=O)OCC(=O)[C@@]12OC(CCN)O[C@@H]1C[C@H]1[C@@H]3CCC4=CC(=O)C=C[C@]4(C)[C@H]3[C@@H](O)C[C@@]12C (stereo partly drawn) [8-3 R/S, 2[(1S,2S,4R,8S,9S,11S,12S,13R)-6-(2-Aminoethyl)-11-hydroxy-9,13-dimethyl-16-oxo-5,7-dioxapentacyclo[10.8.0.0^2,90.0^4,8. 0^13,18]icosa-14,17-dien-8-yl]-2-oxoethyl 2-methylpropanoate] | > 8.00 |  |  | < 20% | < 7.00
CCCC1O[C@@H]2C[C@H]3[C@@H]4C[C@H](F)C5=CC(=O)C=C[C@]5(C)[C@@]4(F)[C@@H](O)C[C@]3(C)[C@]2(C(=O)COc2ccc(CN)cc2)O1 (stereo partly drawn) [11-15 R/S, (1S,2S,4R,8S,9S,11S,12R,13S,19S)-8-{2-[4-(Aminomethyl)phenoxy]acetyl}-12,19-difluoro-11-hydroxy-9,13-dimethyl-6-propyl-5,7-dioxapentacyclo[10.8.0.0^2,90.0^4,80.0^13,18]icosa-14,17-dien-16-one] | > 8.00 |  |  | 20 to 75% | 7.00 to 8.00
CCCC1O[C@@H]2C[C@H]3[C@@H]4C[C@H](F)C5=CC(=O)C=C[C@]5(C)[C@@]4(F)[C@@H](O)C[C@]3(C)[C@]2(C(=O)CNC)O1 (stereo partly drawn) [11-21 R/S, (1S,2S,4R,8S,9S,11S,12R,13S,19S)-12,19-Difluoro-11-hydroxy-9,13-dimethyl-8-[2-(methylamino)acetyl]-6-propyl-5,7-dioxapentacyclo[10.8.0.0^2,90.0^4,80.0^13,18]icosa-14,17-dien-16-one; trifluoroacetic acid] | > 8.00 |  |  | 20 to 75% | 7.00 to 8.00
CCCC1O[C@@H]2C[C@H]3[C@@H]4CCC5=CC(=O)C=C[C@]5(C)[C@@]4(F)[C@@H](O)C[C@]3(C)[C@]2(C(=O)CN)O1 (stereo partly drawn) [Compound 4h, (1S,2S,4R,8S,9S,11S,12R,13S)-8-(2-Aminoacetyl)-12-fluoro-11-hydroxy-9,13-dimethyl-6-propyl-5,7-dioxapentacyclo[10.8.0.0^2,9.0^4,8.0^13,18]icosa-14,17-dien-16-one] | 7.30 to 8.00 | > 8.00 | Full |  | 
C[C@@H]1C[C@H]2[C@@H]3C[C@H](F)C4=CC(=O)C=C[C@]4(C)[C@@]3(F)[C@@H](O)C[C@]2(C)[C@@]1(O)C(=O)CN [Compound 4d, (1R,2S,8S,10S,11S,13R,14R,15S,17S)-14-(2-Aminoacetyl)-1,8-difluoro-14,17-dihydroxy-2,13,15-trimethyltetracyclo 18.7.0.0^2,70.0^11,15]heptadeca-3,6-dien-5-one trifluoroacetate] | 7.30 to 8.00 | 7.30 to 8.00 | Partial |  | 
CCCC1O[C@@H]2C[C@H]3[C@@H]4C[C@H](F)C5=CC(=O)C=C[C@]5(C)[C@@]4(F)[C@@H](O)C[C@]3(C)[C@]2(C(=O)COc2cccc(N)c2)O1 (stereo partly drawn) [11-13 R, (1S,2S,4R,6R,8S,9S,11S,12R,13S,19S)-8-[2-(3-Aminophenoxy)acetyl]-12,19-difluoro-11-hydroxy-9,13-dimethyl-6-propyl-5,7-dioxapentacyclo[10.8.0.0^2,90.0^4,80.0^13,18]icosa-14,17-dien-16-one] | > 8.00 |  |  | > 75% | > 8.00
CCC[C@H]1O[C@@H]2C[C@H]3[C@@H]4CCC5=CC(=O)C=C[C@]5(C)[C@H]4[C@@H](O)C[C@]3(C)[C@]2(C(=O)COc2ccc(N)c(F)c2)O1 [11-6 S, (1S,2S,4R,6S,8S,9S,11S,12S,13R)-8-[2-(4-Amino-3-fluorophenoxy)acetyl]-11-hydroxyl-9,13-dimethyl-6-propyl-5,7-dioxapentacyclo[10.8.0.0^2,90.0^4,80.0^13,18]icosa-14,17-dien-16-one] | 7.00 to 8.00 |  |  | > 75% | > 8.00
CCCC1O[C@@H]2C[C@H]3[C@@H]4CCC5=CC(=O)C=C[C@]5(C)[C@H]4[C@@H](O)C[C@]3(C)[C@]2(C(=O)CN(C)C)O1 (stereo partly drawn) [11-3 R/S, (1S,2S,4R,8S,9S,11S,12S,13R)-8-[2-(Dimethylamino)acetyl]-11-hydroxy-9,13-dimethyl-6-propyl-5,7-dioxapentacyclo[10.8.0.0^2,90.0^4,80.0^13,18]icosa-14,17-dien-16-one] | > 8.00 |  |  | 20 to 75% | 7.00 to 8.00
CCCC1O[C@@H]2C[C@H]3[C@@H]4CCC5=CC(=O)C=C[C@]5(C)[C@H]4[C@@H](O)C[C@]3(C)[C@]2(C(=O)COc2ccc(N)cc2)O1 (stereo partly drawn) [11-5 R/S, (1S,2S,4R,8S,9S,11S,12S,13R)-8-[2-(4-Aminophenoxy)acetyl]-11-hydroxy-9,13-dimethyl-6-propyl-5,7-dioxapentacyclo[10.8.00^2,90.0^4,80.0^13,18]icosa-14,17-dien-16-one] | 7.00 to 8.00 |  |  | > 75% | > 8.00
CCC[C@@H]1O[C@@H]2C[C@H]3[C@@H]4CCC5=CC(=O)C=C[C@]5(C)[C@H]4[C@@H](O)C[C@]3(C)[C@]2(C(=O)COc2ccc(F)cc2)O1 [11-10 R/S, (1S,2S,4R,6R,8S,9S,11S,12S,13R)-8-[2-(4-Fluorophenoxy)acetyl]-11-hydroxy-9,13-dimethyl-6-propyl-5,7-dioxapentacyclo[10.8.0.0^2,90.0^4,80.0^13,18]icosa-14,17-dien-16-one] | > 8.00 |  |  | < 20% | < 7.00
